Key:
HEK293 cells = test: MTT cell viability, non-transfected (mock) HEK293 cells; format: cell-based, human; settings: 0–100 μM, 72 h, Fig 6B
Experimental: Compounds were dissolved in DMSO to the final concentration of 100 μM. A549, CCD39Lu, MCF-7, MDA-MB-231 and MCF-12A cells were seeded in 96 wells plates at density 2x10^4 cells/well and incubated overnight as described above. Subsequently, cells were treated with tested compounds at concentrations: 100 μM; 50 μM; 25μM; 12.5μM; 6 μM; 3 μM; 1.5 μM. […] Cells were incubated 72 h at 37°C in a humidified atmosphere containing 5% CO2 in the cell culture media appropriate for each cell line. Then, the medium was aspirated and 170 μl MTT solution (5mg/ml) was added to each well. Plates were incubated for 2 hours at 37°C, and then plates were centrifuged at 1200 rpm for 3 minutes. […] Absorbance at 570 nm (with reference wavelenght 650 nm) was measured using a plate reader (Biotek Instruments, Elx-800). Cell viability was calculated as a percentage relative to the control.
Fig 6 Estrogenic and cytotoxic activity of tested compounds in HEK293 cells transfected with wild type ERα receptor or plasmids bearing mutated versions of ERα. […] Results are expressed as mean ± SEM (n = 8). * p < 0.05 was considered statistically significant. […] 48 h after transfection, cells were incubated in the presence of increasing concentrations of compounds 18 for 72 h and cell viability was measured by MTT assay. […]

ERα W383A = target: T1, ERα W383A (Homo sapiens, UniProt P03372, W383A); test: Estrogen Receptor luciferase assay in HEK293 cells transfected with ERα W383A; format: cell-based; settings: HEK293, Fig 6A
T1 construct: expressed in transfected cells; host or cells: HEK293
T1 sequence (P03372 1-595 W383A): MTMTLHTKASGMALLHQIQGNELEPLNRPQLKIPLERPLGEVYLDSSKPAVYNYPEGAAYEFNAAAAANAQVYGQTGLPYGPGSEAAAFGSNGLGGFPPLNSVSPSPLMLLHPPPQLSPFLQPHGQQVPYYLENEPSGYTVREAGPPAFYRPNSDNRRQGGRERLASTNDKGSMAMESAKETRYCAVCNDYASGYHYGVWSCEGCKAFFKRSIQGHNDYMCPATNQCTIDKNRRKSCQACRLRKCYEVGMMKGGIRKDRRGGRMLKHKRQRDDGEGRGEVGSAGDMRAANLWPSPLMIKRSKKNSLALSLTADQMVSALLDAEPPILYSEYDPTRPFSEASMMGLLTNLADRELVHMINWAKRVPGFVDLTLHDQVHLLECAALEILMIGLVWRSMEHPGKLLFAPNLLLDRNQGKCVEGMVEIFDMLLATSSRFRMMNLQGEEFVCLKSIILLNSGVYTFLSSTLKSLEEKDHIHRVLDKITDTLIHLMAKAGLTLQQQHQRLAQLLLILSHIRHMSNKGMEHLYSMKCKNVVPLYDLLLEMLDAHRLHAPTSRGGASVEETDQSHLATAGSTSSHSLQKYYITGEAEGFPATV
Excerpt: To obtain a eukaryotic vector expressing only the ER-α nuclear receptor, a construct was designed by cloning a KpnI-BamHI fragment from plasmid pEGFP-C1-ERα containing the ERα coding sequence that includes a stop signal into the pEGFP-N3 plasmid (Clontech Laboratories, Palo Alto, CA) under the control of the CMV promoter. […] For mock transfections, pEGFP-N3 plasmid was digested with BglII and NotI and religated after polishing DNA ends to remove GFP coding sequence. Plasmid sequence was confirmed by automatic sequencing. Prior to transfection, cells were seeded in 48 well plates at density of 1.5 x 10^4 cells/well and incubated for 24 h to reach a cell confluence of 80–90%. […] MCF-7 cells, which endogenously express ERα receptor, were transfected with p3xERRE/ERE-luciferase plus the pRLTK Renilla luciferase control plasmid (95:5). Firefly and Renilla luciferase activities were measured using the Dual Luciferase Assay System (Promega, Madison, WI, USA), following a standard protocol using a Sirius L luminometer (Berthold Technologies, Bad Wildbad, Germany). Data were expressed as relative changes in luciferase activity and normalized to 100%.
Plasmids for the expression of the ERα W383A and ER-α W383S mutated receptors were constructed by the quick change site directed mutagenesis method using plasmid pEGFP-N-ERα as template.

MDA-MB-231 cells = test: MTT assay, MDA-MB-231; format: cell-based, human
Experimental: The cell lines used in the cytotoxicity study, besides MCF-12A, were purchased from European Collection of Cell Culture (ECACC, Salisbury, UK): HEK293 (human embryonic kidney, ATTC no. CRL-1573), A549 (Human lung carcinoma, ECACC no. 86012804), CCD39Lu (Human lung fibroblasts, ECACC no. 90110512), MCF-7 (Human breast adenocarcinoma, ECACC no. 86012803) and MDA-MB-231 (Human breast adenocarcinoma ECACC no. 92020424). Cell lines were cultured in DMEM medium without phenol red and supplemented with 10% (v/v) FBS, 1% penicillin-streptomycin and 1% L-glutamine. MCF-12A (ATTC no. […]) was purchased from American Type Culture Collection (ATCC Manassas, VA 20110 USA). MCF-12A cells were kept in 1:1 mixture of Dulbecco’s modified Eagle’s medium and Ham’s F12 medium, 20 ng/ml human epidermal growth factor, 100 ng/ml cholera toxin, 0.01 mg/ml bovine insulin, 500 ng/ml hydrocortisone and 5% horse serum. All cell lines were cultured at 37°C, in a humidified atmosphere containing 5% CO2.
Compounds were dissolved in DMSO to the final concentration of […]. A549, CCD39Lu, MCF-7, MDA-MB-231 and MCF-12A cells were seeded in 96 wells plates at density 2x10^4 cells/well and incubated overnight as described above. Subsequently, cells were treated with tested compounds at concentrations: 100 μM; 50 μM; 25μM; 12.5μM; 6 μM; 3 μM; 1.5 μM. […] Cells were incubated 72 h at 37°C in a humidified atmosphere containing 5% CO2 in the cell culture media appropriate for each cell line. Then, the medium was aspirated and 170 μl MTT solution (5mg/ml) was added to each well. Plates were incubated for 2 hours at 37°C, and then plates were centrifuged at 1200 rpm for 3 minutes. The formazan crystals were dissolved in 200 μl DMSO and plates were further agitated on a plate shaker at 300–500 rpm for 10 minutes. Absorbance at 570 nm (with reference wavelenght 650 nm) was measured using a plate reader (Biotek Instruments, Elx-800). Cell viability was calculated as a percentage relative to the control.

For `Fc1ccc(NC(=S)c2ccc(NC(=S)c3ccc(F)cc3)cc2)cc1` [Compound 18], the “Cell viability, non-transfected HEK293” value (HEK293 cells) was “moderate cell toxicity”, the “Activation of ER dependent transcription, ERα W383A vs wild type” value (ERα W383A) was “less active” and the “Toxicity/effect in MTT assay (in words), MDA-MB-231” value (MDA-MB-231 cells; 72 h) was “non-significant effects”. The IC50 (MDA-MB-231 cells; Homo sapiens, MDA-MB-231, 72 h, estrogen independent breast adenocarcinoma, read-out: Cytotoxic activity IC50, MDA-MB-231) was > 100 µM.

Reference: article PMC4701221, “Novel Promising Estrogenic Receptor Modulators: Cytotoxic and Estrogenic Activity of Benzanilides and Dithiobenzanilides” (PLoS ONE, 2016)
